{"source": "ChEMBL document CHEMBL3301448", "about": "“MMV Malaria Box screening against Toxoplasma gondii and Entamoeba histolytica”"}
{"system": "Entamoeba histolytica", "assay": "MMV: Primary screening was performed with each compound at a 30 uM final concentration and in triplicate in sealed 96-well polystyrene microtiter plates. Parasite inocula (100 ul) comprising 20000 parasites/ml were added to each well and grown at 37 degrees C in a humidified atmosphere of 5% CO2 for 72 h. Positive controls consisted of metronidazole at 1 mg/ml. The growth of E. histolytica trophozoites in each well was determined microscopically by measuring the diameters of the confluent cells in drug-containing wells relative to those in the nega- tive-control wells.", "format": "functional, organism-based", "settings": "not given", "units": {"IC50": "µM"}}
{"smiles": "COc1ccc(-c2cc3c(nn2)-c2ccccc2C3=O)cc1", "IC50": "> 30"}
{"smiles": "COc1ccc(C2c3ccc4ccccc4c3Oc3ncn(CCCN(C)C)c(=N)c32)cc1", "note": "(configuration not stated)", "IC50": "> 30"}
{"smiles": "COc1ccc(/C=C2/SC(=Nc3ccccc3)NC2=O)cc1", "IC50": "> 30"}
{"smiles": "c1ccc(/C2=N/c3ccccc3/N=C(/c3ccccc3)c3ccccc32)cc1", "IC50": "> 30"}
{"smiles": "CCOC(=O)c1c(C)n(-c2ccccc2)c2ccc(OC(=O)c3cc(OC)c(OC)c(OC)c3)cc12", "IC50": "> 30"}
{"smiles": "N#Cc1nc(Cc2cccc3ccccc23)oc1N1CCN(C(c2ccccc2)c2ccccc2)CC1", "IC50": "> 30"}
{"smiles": "COc1ccc(C2c3ccc4ccccc4c3Oc3ncn(CCCn4ccnc4)c(=N)c32)cc1OC", "note": "(configuration not stated)", "IC50": "> 30"}
{"smiles": "CN(N=O)C1=C(NC2CCCCC2)C(=O)c2ccccc2C1=O", "IC50": "> 30"}
{"smiles": "CCOC(=O)C1=C(C)N=c2sc(=Cc3ccccc3O)c(=O)n2C1c1ccc(OC)c2ccccc12", "note": "(configuration not stated)", "IC50": "> 30"}
{"smiles": "FC(F)(F)c1cccc(Nc2nc3ccccc3nc2Nc2cccc(C(F)(F)F)c2)c1", "IC50": "> 30"}
{"smiles": "Cc1ccc(C(=O)c2oc3ccc4c(C)cc(=O)oc4c3c2C)cc1", "IC50": "> 30"}
{"smiles": "COc1ccc(CN2CCCC(C(=O)c3ccc(C(F)(F)F)cc3)C2)c(O)c1", "note": "(configuration not stated)", "IC50": "> 30"}
{"smiles": "CCCCCCc1cc2cc(-c3csc(C=Cc4ccccc4)n3)c(=O)oc2cc1O", "IC50": "> 30"}
{"smiles": "O=C(NC1CCCCC1)C(c1cccs1)N(CCc1ccccc1)C(=O)c1ccco1", "note": "(configuration not stated)", "IC50": "> 30"}
{"smiles": "CC(Oc1ccc(NC(=O)c2cccs2)cc1)C(=O)c1ccc(Cl)cc1", "note": "(configuration not stated)", "IC50": "> 30"}
{"smiles": "c1ccc2c(NCCCCCCNc3c4c(nc5ccccc35)CCCC4)c3c(nc2c1)CCCC3", "IC50": "> 30"}
{"smiles": "COc1ccc(CNC(=O)c2cc3c(=O)n4ccccc4nc3n(CCc3ccccc3)c2=N)cc1", "IC50": "> 30"}
{"smiles": "Brc1ccc(Nc2nc3ccccc3nc2Nc2ccc(Br)cc2)cc1", "IC50": "> 30"}
{"smiles": "O=C(NC1CCN(Cc2ccccc2)CC1)c1cc(C(=O)NC2CCN(Cc3ccccc3)CC2)cc(C(=O)NC2CCN(Cc3ccccc3)CC2)c1", "IC50": "> 30"}
{"smiles": "Cc1ccnc(NC(c2cccc(OCc3ccccc3)c2)c2ccc3cccnc3c2O)c1", "note": "(configuration not stated)", "IC50": "> 30"}
{"smiles": "Nc1ccc(-c2nc3cc(Cc4ccc5[nH]c(-c6ccc(N)cc6)nc5c4)ccc3[nH]2)cc1", "IC50": "> 30"}
{"smiles": "COc1ccc(-c2cn3c(C(=O)Nc4ccccc4Cl)c(-c4ccccc4)c4c3n2CCCC4)cc1", "IC50": "> 30"}
{"smiles": "CCCCOC(=O)c1ccc(Nc2cc(C)nc3ccc(OC)cc23)cc1", "IC50": "> 30"}
{"smiles": "Cn1c(=O)n(C)c2cc(CNCCNc3ccnc4cc(Cl)ccc34)ccc21", "IC50": "> 30"}
{"smiles": "Cc1cc(Nc2ccc(OCc3ccccc3)cc2)nc2cc(O)ccc12", "IC50": "> 30"}
{"smiles": "CCN(CC)CCNc1ccnc2cc3ccccc3cc12", "IC50": "> 30"}
{"smiles": "CCOc1ccc2nc(C)cc(Nc3ccc(N(C)C)cc3)c2c1", "IC50": "> 30"}
{"smiles": "N=c1c2ccccc2nnn1-c1cccc(C(F)(F)F)c1", "IC50": "> 30"}
{"smiles": "COc1cc(-c2nc(-c3ccc(Sc4ccccc4)cc3)c(-c3ccccc3)[nH]2)cc(OC)c1O", "IC50": "> 30"}
{"smiles": "O=c1cc(NC2CCN(CCCc3ccccc3)CC2)c2cc(Cl)ccc2o1", "IC50": "> 30"}
{"smiles": "COc1ccc(C=C2SC(Nc3ccc(F)cc3)=NC2=O)c(OC)c1", "IC50": "> 30"}
{"smiles": "COc1ccc(C2NCCc3c2[nH]c2ccccc32)cc1CN1CCN(c2ccc(F)cc2)CC1", "note": "(configuration not stated)", "IC50": "> 30"}
{"smiles": "O=C(Nc1ccc(-c2nc3cc(NC(=O)c4ccc(Cl)cc4)ccc3[nH]2)cc1)c1ccc(Cl)cc1", "IC50": "> 30"}
{"smiles": "OC(Cn1nnc2ccccc21)Cn1c2ccc(Br)cc2c2cc(Br)ccc21", "note": "(configuration not stated)", "IC50": "> 30"}
{"smiles": "CCOc1ccc(-n2cc(-c3ccccc3)c3c(SCc4cc(C)ccc4C)ncnc32)cc1", "IC50": "> 30"}
{"smiles": "Cc1ccc(C)c(Cn2c(N3CCC(C(=O)NCc4cccs4)CC3)nc3ccccc32)c1", "IC50": "> 30"}
{"smiles": "Cc1ccccc1OCCSc1nc2ccc(NC(=O)c3cccs3)cc2s1", "IC50": "> 30"}
{"smiles": "CC1CCN(Cc2c(O)ccc3cc(-c4nc5ccccc5s4)c(=O)oc23)CC1", "IC50": "> 30"}
{"smiles": "Cc1ccc2cc3c(N)c4c(C)ccc(C)c4nc3nc2c1", "IC50": "> 30"}
{"smiles": "COc1ccccc1C(=O)ON=C(N)Cc1cccc2ccccc12", "IC50": "> 30"}
{"smiles": "CC(C)CCNCC(O)Cn1c2ccccc2c2ccccc21", "note": "(configuration not stated)", "IC50": "> 30"}
{"system": "Toxoplasma gondii", "assay": "MMV: A total of 100ul of inoculum was added to each well (parasite/cell ratio, ~10:1; final volume, 200 ul). Six hours after inoculation, nonadherent parasites were removed, and 100 ul of complete DMEM (1% penicillin-streptomycin, 3% FBS) supplemented with inhibitors at different concentrations (2-fold serial dilutions starting from 30 uM) was added to all except the negative-control wells. Positive controls, consisting of pyrimethamine (PYR) and sulfadiazine (SDZ) (20-mg/ml stocks in DMSO), were tested at a 2mg/ml final concentration. Each test was performed in triplicate.", "format": "functional, organism-based", "settings": "6 h", "units": {"IC50": "µM"}}
{"smiles": "COc1ccc(-c2cc3c(nn2)-c2ccccc2C3=O)cc1", "IC50": "> 30"}
{"smiles": "COc1ccc(C2c3ccc4ccccc4c3Oc3ncn(CCCN(C)C)c(=N)c32)cc1", "note": "(configuration not stated)", "IC50": "> 30"}
{"smiles": "COc1ccc(/C=C2/SC(=Nc3ccccc3)NC2=O)cc1", "IC50": "> 30"}
{"smiles": "c1ccc(/C2=N/c3ccccc3/N=C(/c3ccccc3)c3ccccc32)cc1", "IC50": "> 30"}
{"smiles": "CCOC(=O)c1c(C)n(-c2ccccc2)c2ccc(OC(=O)c3cc(OC)c(OC)c(OC)c3)cc12", "IC50": "> 30"}
{"smiles": "N#Cc1nc(Cc2cccc3ccccc23)oc1N1CCN(C(c2ccccc2)c2ccccc2)CC1", "IC50": "> 30"}
{"smiles": "COc1ccc(C2c3ccc4ccccc4c3Oc3ncn(CCCn4ccnc4)c(=N)c32)cc1OC", "note": "(configuration not stated)", "IC50": "> 30"}
{"smiles": "CN(N=O)C1=C(NC2CCCCC2)C(=O)c2ccccc2C1=O", "IC50": "> 30"}
{"smiles": "CCOC(=O)C1=C(C)N=c2sc(=Cc3ccccc3O)c(=O)n2C1c1ccc(OC)c2ccccc12", "note": "(configuration not stated)", "IC50": "> 30"}
{"smiles": "FC(F)(F)c1cccc(Nc2nc3ccccc3nc2Nc2cccc(C(F)(F)F)c2)c1", "IC50": "> 30"}
{"smiles": "Cc1ccc(C(=O)c2oc3ccc4c(C)cc(=O)oc4c3c2C)cc1", "IC50": "> 30"}
{"smiles": "COc1ccc(CN2CCCC(C(=O)c3ccc(C(F)(F)F)cc3)C2)c(O)c1", "note": "(configuration not stated)", "IC50": "> 30"}
{"smiles": "CCCCCCc1cc2cc(-c3csc(C=Cc4ccccc4)n3)c(=O)oc2cc1O", "IC50": "> 30"}
{"smiles": "O=C(NC1CCCCC1)C(c1cccs1)N(CCc1ccccc1)C(=O)c1ccco1", "note": "(configuration not stated)", "IC50": "> 30"}
{"smiles": "CC(Oc1ccc(NC(=O)c2cccs2)cc1)C(=O)c1ccc(Cl)cc1", "note": "(configuration not stated)", "IC50": 10.5}
{"smiles": "c1ccc2c(NCCCCCCNc3c4c(nc5ccccc35)CCCC4)c3c(nc2c1)CCCC3", "IC50": "> 30"}
{"smiles": "COc1ccc(CNC(=O)c2cc3c(=O)n4ccccc4nc3n(CCc3ccccc3)c2=N)cc1", "IC50": "> 30"}
{"smiles": "Brc1ccc(Nc2nc3ccccc3nc2Nc2ccc(Br)cc2)cc1", "IC50": "> 30"}
{"smiles": "O=C(NC1CCN(Cc2ccccc2)CC1)c1cc(C(=O)NC2CCN(Cc3ccccc3)CC2)cc(C(=O)NC2CCN(Cc3ccccc3)CC2)c1", "IC50": "> 30"}
{"smiles": "Cc1ccnc(NC(c2cccc(OCc3ccccc3)c2)c2ccc3cccnc3c2O)c1", "note": "(configuration not stated)", "IC50": "> 30"}
{"smiles": "Nc1ccc(-c2nc3cc(Cc4ccc5[nH]c(-c6ccc(N)cc6)nc5c4)ccc3[nH]2)cc1", "IC50": "> 30"}
{"smiles": "COc1ccc(-c2cn3c(C(=O)Nc4ccccc4Cl)c(-c4ccccc4)c4c3n2CCCC4)cc1", "IC50": "> 30"}
{"smiles": "CCCCOC(=O)c1ccc(Nc2cc(C)nc3ccc(OC)cc23)cc1", "IC50": "> 30"}
{"smiles": "Cn1c(=O)n(C)c2cc(CNCCNc3ccnc4cc(Cl)ccc34)ccc21", "IC50": "> 30"}
{"smiles": "Cc1cc(Nc2ccc(OCc3ccccc3)cc2)nc2cc(O)ccc12", "IC50": "> 30"}
{"smiles": "CCN(CC)CCNc1ccnc2cc3ccccc3cc12", "IC50": "> 30"}
{"smiles": "CCOc1ccc2nc(C)cc(Nc3ccc(N(C)C)cc3)c2c1", "IC50": "> 30"}
{"smiles": "N=c1c2ccccc2nnn1-c1cccc(C(F)(F)F)c1", "IC50": "> 30"}
{"smiles": "COc1cc(-c2nc(-c3ccc(Sc4ccccc4)cc3)c(-c3ccccc3)[nH]2)cc(OC)c1O", "IC50": 5.85}
{"smiles": "O=c1cc(NC2CCN(CCCc3ccccc3)CC2)c2cc(Cl)ccc2o1", "IC50": "> 30"}
{"smiles": "COc1ccc(C=C2SC(Nc3ccc(F)cc3)=NC2=O)c(OC)c1", "IC50": "> 30"}
{"smiles": "COc1ccc(C2NCCc3c2[nH]c2ccccc32)cc1CN1CCN(c2ccc(F)cc2)CC1", "note": "(configuration not stated)", "IC50": "> 30"}
{"smiles": "O=C(Nc1ccc(-c2nc3cc(NC(=O)c4ccc(Cl)cc4)ccc3[nH]2)cc1)c1ccc(Cl)cc1", "IC50": "> 30"}
{"smiles": "OC(Cn1nnc2ccccc21)Cn1c2ccc(Br)cc2c2cc(Br)ccc21", "note": "(configuration not stated)", "IC50": "> 30"}
{"smiles": "CCOc1ccc(-n2cc(-c3ccccc3)c3c(SCc4cc(C)ccc4C)ncnc32)cc1", "IC50": 11.2}
{"smiles": "Cc1ccc(C)c(Cn2c(N3CCC(C(=O)NCc4cccs4)CC3)nc3ccccc32)c1", "IC50": "> 30"}
{"smiles": "Cc1ccccc1OCCSc1nc2ccc(NC(=O)c3cccs3)cc2s1", "IC50": "> 30"}
{"smiles": "CC1CCN(Cc2c(O)ccc3cc(-c4nc5ccccc5s4)c(=O)oc23)CC1", "IC50": "> 30"}
{"smiles": "Cc1ccc2cc3c(N)c4c(C)ccc(C)c4nc3nc2c1", "IC50": "> 30"}
{"smiles": "COc1ccccc1C(=O)ON=C(N)Cc1cccc2ccccc12", "IC50": "> 30"}
{"smiles": "CC(C)CCNCC(O)Cn1c2ccccc2c2ccccc21", "note": "(configuration not stated)", "IC50": "> 30"}
